US6593357B1, “Pyrazole compositions useful as inhibitors of ERK” (Vertex Pharmaceuticals Incorporated, priority 2000, dated 2003)
Where two headings read alike, the source gives them in different places.

Molecular target: ERK2 (Homo sapiens, UniProt P28482)
Test: ERK2 inhibition, spectrophotometric coupled-enzyme assay
Assay type: biochemical
Details: activated ERK2 10 nM, 65 μM ATP, 30° C., pH 7.5
[1] = read-out: ERK2 Inhibitory Activity (Ki class)
[2] = ERK2 Inhibitory Activity (Ki class)

ERK2, sequence (P28482 whole entry): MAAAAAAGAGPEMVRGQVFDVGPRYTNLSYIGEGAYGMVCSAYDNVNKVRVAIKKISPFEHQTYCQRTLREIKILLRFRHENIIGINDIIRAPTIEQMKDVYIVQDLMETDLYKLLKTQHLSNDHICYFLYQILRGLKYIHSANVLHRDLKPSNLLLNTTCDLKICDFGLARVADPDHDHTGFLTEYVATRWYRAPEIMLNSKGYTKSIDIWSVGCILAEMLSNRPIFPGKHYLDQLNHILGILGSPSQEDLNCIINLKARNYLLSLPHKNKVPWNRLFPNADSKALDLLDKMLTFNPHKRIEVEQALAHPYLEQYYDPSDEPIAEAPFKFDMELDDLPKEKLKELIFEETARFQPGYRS

Row | SMILES | Ki [1] [nM] | Ki [2] [nM]
1 | Cc1ccccc1CNC(=O)c1cc(-c2[nH]ncc2-c2cccc(Br)c2)c[nH]1 [II-60] | < 1000 | 
2 | CC(C)NC(=O)c1cc(-c2[nH]ncc2-c2ccccc2)c[nH]1 [II-20] | < 1000 | 
3 | O=C(NCCO)c1cc(-c2[nH]ncc2-c2cccc(Br)c2)c[nH]1 [II-130] | 1000 to 5000 | 
4 | O=C(c1cc(-c2[nH]ncc2-c2ccc(F)c(Cl)c2)c[nH]1)N1CCOCC1 [II-107] | < 1000 | 
5 | CCOC(=O)c1cc(-c2[nH]ncc2-c2cccc(Cl)c2)c[nH]1 [II-13] | < 1000 | 
6 | O=C(c1cc(-c2[nH]ncc2-c2ccccc2)c[nH]1)N1CCOCC1 [II-19] | < 1000 | 
7 | CC(C)ONC(=O)c1cc(-c2[nH]ncc2-c2cccc(Br)c2)c[nH]1 [II-161] | > 5000 | 
8 | O=C(NCc1cccnc1)c1cc(-c2[nH]ncc2-c2ccccc2)c[nH]1 [II-18] | < 1000 | 
9 | NNC(=O)c1cc(-c2[nH]ncc2-c2cccc([N+](=O)[O-])c2)c[nH]1 [II-3] | < 1000 | 
10 | NNC(=O)c1cc(-c2[nH]ncc2-c2cccc([N+](=O)[O-])c2)c[nH]1 [II-137] | 1000 to 5000 | 
11 | O=C(c1cc(-c2[nH]ncc2-c2cccc(Br)c2)c[nH]1)N1CCC(O)(c2ccccc2)CC1 [II-102] | < 1000 | 
12 | O=C(c1cc(-c2[nH]ncc2-c2ccc(Cl)c(Cl)c2)c[nH]1)N1CCOCC1 [II-127] | 1000 to 5000 | 
13 | O=C(NC(CCO)c1ccccc1)c1cc(-c2[nH]ncc2-c2cccc(Br)c2)c[nH]1 (centres unmarked) [II-86] | < 1000 | 
14 | O=C(NCc1ccco1)c1cc(-c2[nH]ncc2-c2ccccc2)c[nH]1 [II-22] | < 1000 | 
15 | CNC(=O)c1cc(-c2[nH]ncc2-c2cccc(Br)c2)c[nH]1 [II-152] | 1000 to 5000 | 
16 | COc1cc2c(cc1OC)C(CO)N(C(=O)c1cc(-c3[nH]ncc3-c3cccc(Br)c3)c[nH]1)CC2 (centres unmarked) [II-105] | < 1000 | 
17 | CCOC(=O)c1cc(-c2[nH]ncc2-c2cccc(F)c2)c[nH]1 [II-162] | > 5000 | 
18 | COc1cccc(-c2cn[nH]c2-c2c[nH]c(C(=O)N(C)C)c2)c1 [II-23] | < 1000 | 
19 | O=C(NCC1CCCO1)c1cc(-c2[nH]ncc2-c2ccc(F)c(F)c2)c[nH]1 (centres unmarked) [II-120] | 1000 to 5000 | 
20 | O=C(NCC1CCCO1)c1cc(-c2[nH]ncc2-c2cc(Cl)cc(Cl)c2)c[nH]1 (centres unmarked) [II-78] | < 1000 | 
21 | CC(C)(C)OC(=O)N1CCCC(CNC(=O)c2cc(-c3[nH]ncc3-c3cc(Cl)cc(Cl)c3)c[nH]2)C1 (centres unmarked) [II-125] | 1000 to 5000 | 
22 | COc1cccc(N2CCN(C(=O)c3cc(-c4[nH]ncc4-c4cccc(Br)c4)c[nH]3)CC2)c1 [II-122] | 1000 to 5000 | 
23 | O=C(NCc1ccccc1)c1cc(-c2[nH]ncc2-c2cccc(Br)c2)c[nH]1 [II-299] | > 5000 | 
24 | COc1cccc(-c2cn[nH]c2-c2c[nH]c(C(=O)N3CCCC3)c2)c1 [II-24] | < 1000 | 
25 | O=C(NCc1cccnc1)c1cc(-c2[nH]ncc2-c2ccc(F)c(F)c2)c[nH]1 [II-116] | 1000 to 5000 | 
26 | CS(=O)(=O)c1ccc(CNC(=O)c2cc(-c3[nH]ncc3-c3cccc(Br)c3)c[nH]2)cc1 [II-55] | < 1000 | 

Row | SMILES | Ki [1] [nM] | Ki [2] [nM]
27 | COc1cccc(-c2cn[nH]c2-c2c[nH]c(C(=O)N3CCOCC3)c2)c1 [II-27] | < 1000 | 
28 | O=C(c1cc(-c2[nH]ncc2-c2cccc(Br)c2)c[nH]1)N1CCc2ccccc2C1 [II-87] | < 1000 | 
29 | O=C(c1cc(-c2[nH]ncc2-c2cccc(Br)c2)c[nH]1)N(CCCO)Cc1ccccc1 [II-139] | 1000 to 5000 | 
30 | CCOC(=O)c1cc(-c2[nH]ncc2-c2cccc([N+](=O)[O-])c2)c[nH]1 [II-148] | 1000 to 5000 | 
31 | O=C(NCc1ccccc1)c1cc(-c2[nH]ncc2-c2cc(I)c(O)c([N+](=O)[O-])c2)c[nH]1 [II-52] | < 1000 | 
32 | CC1CCN(C(=O)c2cc(-c3[nH]ncc3-c3cccc(Cl)c3)c[nH]2)CC1 [II-136] | 1000 to 5000 | 
33 | CCOC(=O)c1cc(-c2[nH]ncc2-c2ccc(N)cc2)c[nH]1 [II-164] | > 5000 | 
34 | Cc1cccc(-c2cn[nH]c2-c2c[nH]c(C(=O)NC(CO)c3ccccc3)c2)c1 (centres unmarked) [II-75] | < 1000 | 
35 | Nc1ccc(CNC(=O)c2cc(-c3[nH]ncc3-c3cccc(Br)c3)c[nH]2)cc1 [II-109] | < 1000 | 
36 | COc1ccc(-c2cn[nH]c2-c2c[nH]c(C(=O)NCc3ccccc3)c2)cc1 [II-117] | 1000 to 5000 | 
37 | CCOC(=O)c1cc(-c2[nH]ncc2-c2ccc(OC)cc2)c[nH]1 [II-8] | > 5000 | 
38 | O=C(NOCc1ccccc1)c1cc(-c2[nH]ncc2-c2ccc(F)cc2)c[nH]1 [II-146] | 1000 to 5000 | 
39 | CCOC(=O)c1cc(-c2[nH]ncc2-c2cccc(N)c2)c[nH]1 [II-9] | > 5000 | 
40 | O=C(NCc1ccccc1)c1cc(-c2n[nH]cc2-c2ccccc2)c[nH]1 [II-5, 4-(4-phenyl-1H-pyrazole-3-yl)-1H-pyrrole-2-carboxylic acid benzylamide] | < 1000 | 
41 | CCOC(=O)c1cc(-c2[nH]ncc2-c2cccc(Br)c2)c[nH]1 [II-157] | 1000 to 5000 | 
42 | O=C(NCc1cccc(C(F)(F)F)c1)c1cc(-c2[nH]ncc2-c2cccc(Br)c2)c[nH]1 [II-47] | < 1000 | 
43 | CCOC(=O)c1cc(-c2[nH]ncc2-c2ccc(F)cc2)c[nH]1 [II-11] | > 5000 | 
44 | O=C(NC1c2ccccc2CC1O)c1cc(-c2[nH]ncc2-c2cccc(Cl)c2)c[nH]1 (centres unmarked) [II-155] |  | 1000 to 5000
45 | O=C(NC(COc1ccccc1)c1ccc2c(c1)OCCO2)c1cc(-c2[nH]ncc2-c2cccc(Br)c2)c[nH]1 (centres unmarked) [II-290] | 1000 to 5000 | 
46 | CCN1CCCC1CNC(=O)c1cc(-c2n[nH]cc2-c2cccc(Cl)c2)c[nH]1 (centres unmarked) [II-286] |  | > 5000
47 | O=C(NCc1ccccc1)c1cc(-c2[nH]ncc2-c2cccc(F)c2)c[nH]1 [II-63] | < 1000 | 
48 | Cc1cccc(-c2cn[nH]c2-c2c[nH]c(C(=O)NCc3ccccc3)c2)c1 [II-90] | < 1000 | 
49 | O=C(NCc1ccccc1)c1cc(-c2[nH]ncc2-c2cccc([N+](=O)[O-])c2)c[nH]1 [II-79] | < 1000 | 
50 | COc1ccc(OC)c(CNC(=O)c2cc(-c3[nH]ncc3-c3cccc(Br)c3)c[nH]2)c1 [II-124] | 1000 to 5000 | 
51 | CCOC(=O)c1cc(-c2[nH]ncc2-c2ccccc2)c[nH]1 [II-2] | > 5000 | 
52 | O=C(N[C@@H](CO)Cc1ccc(O)cc1)c1cc(-c2[nH]ncc2-c2cccc(Br)c2)c[nH]1 [II-293] | > 5000 | 

Row | SMILES | Ki [1] [nM] | Ki [2] [nM]
53 | Cc1cccc(-c2cn[nH]c2-c2c[nH]c(C(=O)NCc3ccncc3)c2)c1 [II-96] | < 1000 | 
54 | COc1cccc(CNC(=O)c2cc(-c3[nH]ncc3-c3cccc(Br)c3)c[nH]2)c1 [II-46] | < 1000 | 
55 | CN(C)CCNC(=O)c1cc(-c2[nH]ncc2-c2ccccc2)c[nH]1 [II-297] | > 5000 | 
56 | Cc1ccc(CNC(=O)c2cc(-c3[nH]ncc3-c3cccc(Br)c3)c[nH]2)o1 [II-58] | < 1000 | 
57 | CC1CCN(C(=O)c2cc(-c3[nH]ncc3-c3ccccc3)c[nH]2)CC1 [II-166] | > 5000 | 
58 | O=C(c1cc(-c2[nH]ncc2-c2cccc(Br)c2)c[nH]1)N1CCN(c2cnccn2)CC1 [II-138] | 1000 to 5000 | 
59 | COc1cccc(-c2cn[nH]c2-c2c[nH]c(C(=O)NCc3cccnc3)c2)c1 [II-26] | < 1000 | 
60 | O=C(N[C@@H](CO)Cc1cnc[nH]1)c1cc(-c2[nH]ncc2-c2cccc(Br)c2)c[nH]1 [II-294] | > 5000 | 
61 | COc1ccc(C[C@H](CO)NC(=O)c2cc(-c3[nH]ncc3-c3cccc(Br)c3)c[nH]2)cc1OC [II-296] | > 5000 | 
62 | CC(C)(C)OC(=O)N1CCCC(CNC(=O)c2cc(-c3[nH]ncc3-c3cccc(Cl)c3F)c[nH]2)C1 (centres unmarked) [II-121] | 1000 to 5000 | 
63 | CCOC(=O)c1cc(-c2[nH]ncc2-c2cccc(OC)c2)c[nH]1 [II-10] | > 5000 | 
64 | O=C(NCc1ccccc1)c1cc(-c2[nH]ncc2-c2cccc([N+](=O)[O-])c2)c[nH]1 [II-285] | 1000 to 5000 | 
65 | CC(C)NC(=O)c1cc(-c2[nH]ncc2-c2cccc(C(=O)O)c2)c[nH]1 [II-160] | 1000 to 5000 | 
66 | O=C(N[C@@H](CO)c1ccccc1)c1cc(-c2[nH]ncc2-c2cc(Cl)cc(Cl)c2)c[nH]1 [II-39] | < 1000 | 
67 | O=C(NCc1ccccc1)c1cc(-c2[nH]ncc2-c2cccc(O)c2)c[nH]1 [II-95] | < 1000 | 
68 | COc1cccc(-c2cn[nH]c2-c2c[nH]c(C(=O)NCCN(C)C)c2)c1 [II-25] | > 5000 | 
69 | CCOC(=O)c1cc(-c2[nH]ncc2-c2ccc(Cl)cc2)c[nH]1 [II-7] | > 5000 | 
70 | O=C(NC(CO)(CO)CO)c1cc(-c2[nH]ncc2-c2cccc(Br)c2)c[nH]1 [II-295] | > 5000 | 
71 | O=C(NCc1cccnc1)c1cc(-c2[nH]ncc2-c2cccc(F)c2)c[nH]1 [II-119] | 1000 to 5000 | 
72 | CCN(C)C(=O)c1cc(-c2[nH]ncc2-c2cccc(F)c2)c[nH]1 [II-291] | > 5000 | 
73 | O=C(NC(CO)c1ccccc1)c1cc(-c2[nH]ncc2-c2cccc(C(F)(F)F)c2)c[nH]1 (centres unmarked) [II-49] | < 1000 | 
74 | O=C(NC[C@@H]1CCCC[C@@H]1O)c1cc(-c2[nH]ncc2-c2cccc(Br)c2)c[nH]1 [II-65] | < 1000 | 
75 | CN(Cc1ccccc1)C(=O)c1cc(-c2[nH]ncc2-c2cccc(Br)c2)c[nH]1 [II-83] | < 1000 | 
76 | O=C(c1cc(-c2[nH]ncc2-c2cccc(Br)c2)c[nH]1)N1CCN(c2ccc(F)cc2)CC1 [II-128] | 1000 to 5000 | 
77 | COc1cccc(-c2cn[nH]c2-c2c[nH]c(C(=O)NCc3ccco3)c2)c1 [II-30] | < 1000 | 
